Literature values as cited in patent publication US8815929B2, “Method and therapeutic/cosmetic topical compositions for the treatment of rosacea and skin erythema using α1-adrenoceptor agonists” (Allergan, Inc., priority 2004, dated 2014).
Counter-ions that a name gives are not always drawn.

How the values were obtained:
[1] = retrospective study in man
[2] = rabbits; injection subcutaneously
[3] = dog, cat, rabbit or mouse; dosages close to those used in man; manufacturers' report
[4] = used intranasally and ophthalmically for decades

- association between the drug and congenital disorders [1]: no association was found
SMILES: Cc1cc(C(C)(C)C)c(O)c(C)c1CC1=NCCN1 [oxymetazoline, 2-(3-Hydroxy-2,6-dimethyl-4-t-butylbenzyl)-2-imidazoline hydrochloride]
- drug related abnormalities or effects on the offspring [2]: no drug related abnormalities or effects on the offspring were found
- organ damage or general toxicity [3]: no significant organ damage or general toxicity
- systemic side effects [4]: has not been reported to effect any systemic side effects
